Measurements from US12110295B2, “WD40 repeat domain protein 5 (WDR5) degradation/disruption compounds and methods of use” (Icahn School of Medicine at Mount Sinai, priority 2018, dated 2024).

Target: WDR5 (Homo sapiens, UniProt P61964)
Experiment: Screening of putative WDR5 degraders by Western blot in MV4;11 and/or MIAPACA2 cells
Assay type: cell-based
Parameters: After WDR5 degrader treatment, cells were collected and lysed; endogenous in cells; host or cells: MV4;11 and/or MIAPACA2
Settings: summary of screening, FIGS. 6-10
Procedure, shortened: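 MV4;11 (1×10^6/well) or MIAPACA2 (1×10^5/well) cells treated 18 h with compound at paired doses between 0.1 and 10 μM, DMSO as control. Total lysates immunoblotted for WDR5 with vinculin, tubulin or GAPDH loading controls; fluorescent secondary detection.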

SMILES	effective degradation of WDR5 in MV4;11 and/or MIAPACA2 cells
Cc1ncsc1-c1ccc(CNC(=O)[C@@H]2C[C@@H](O)CN2C(=O)[C@@H](NC(=O)CCOCCOCCC(=O)N2CCN(Cc3cnc(N4CC=C(c5cc(NC(=O)c6c[nH]c(=O)cc6C(F)(F)F)c(N6C[C@@H](C)N(C)[C@@H](C)C6)cc5F)CC4)nc3)CC2)C(C)(C)C)cc1 [XF078-135, N-(4-fluoro-5-(1-(5-((4-(3-(2-(3-(((S)-1-((2S,4R)-4-hydroxy-2-((4-(4-methylthiazol-5-yl)benzyl)carbamoyl)pyrrolidin-1-yl)-3,3-dimethyl-1-oxobutan-2-yl)amino)-3-oxopropoxy)ethoxy)propanoyl)piperazin-1-yl)methyl)pyrimidin-2-yl)-1,2,3,6-tetrahydropyridin-4-yl)-2-((3S,5R)-3,4,5-trimethylpiperazin-1-yl)phenyl)-6-oxo-4-(trifluoromethyl)-1,6-dihydropyridine-3-carboxamide]	able to effectively degrade WDR5
Cc1ncsc1-c1ccc(CNC(=O)[C@@H]2C[C@@H](O)CN2C(=O)[C@@H](NC(=O)COCCOCCOCC(=O)N2CCN(Cc3cnc(N4CC=C(c5cc(NC(=O)c6c[nH]c(=O)cc6C(F)(F)F)c(N6C[C@@H](C)N(C)[C@@H](C)C6)cc5F)CC4)nc3)CC2)C(C)(C)C)cc1 [XF078-136, N-(4-fluoro-5-(1-(5-((4-((S)-13-((2S,4R)-4-hydroxy-2-((4-(4-methylthiazol-5-yl)benzyl)carbamoyl)pyrrolidine-1-carbonyl)-14,14-dimethyl-11-oxo-3,6,9-trioxa-12-azapentadecanoyl)piperazin-1-yl)methyl)pyrimidin-2-yl)-1,2,3,6-tetrahydropyridin-4-yl)-2-((3S,5R)-3,4,5-trimethylpiperazin-1-yl)phenyl)-6-oxo-4-(trifluoromethyl)-1,6-dihydropyridine-3-carboxamide]	able to effectively degrade WDR5
Cc1ncsc1-c1ccc(CNC(=O)[C@@H]2C[C@@H](O)CN2C(=O)[C@@H](NC(=O)CCOCCOCCOCCC(=O)N2CCN(Cc3cnc(N4CC=C(c5cc(NC(=O)c6c[nH]c(=O)cc6C(F)(F)F)c(N6C[C@@H](C)N(C)[C@@H](C)C6)cc5F)CC4)nc3)CC2)C(C)(C)C)cc1 [XF078-137, N-(4-fluoro-5-(1-(5-((4-((S)-15-((2S,4R)-4-hydroxy-2-((4-(4-methylthiazol-5-yl)benzyl)carbamoyl)pyrrolidine-1-carbonyl)-16,16-dimethyl-13-oxo-4,7,10-trioxa-14-azaheptadecanoyl)piperazin-1-yl)methyl)pyrimidin-2-yl)-1,2,3,6-tetrahydropyridin-4-yl)-2-((3S,5R)-3,4,5-trimethylpiperazin-1-yl)phenyl)-6-oxo-4-(trifluoromethyl)-1,6-dihydropyridine-3-carboxamide]	able to effectively degrade WDR5
Cc1ncsc1-c1ccc(CNC(=O)[C@@H]2C[C@@H](O)CN2C(=O)[C@@H](NC(=O)CCOCCOCCOCCOCCC(=O)N2CCN(Cc3cnc(N4CC=C(c5cc(NC(=O)c6c[nH]c(=O)cc6C(F)(F)F)c(N6C[C@@H](C)N(C)[C@@H](C)C6)cc5F)CC4)nc3)CC2)C(C)(C)C)cc1 [XF078-138, N-(4-fluoro-5-(1-(5-((4-((S)-18-((2S,4R)-4-hydroxy-2-((4-(4-methylthiazol-5-yl)benzyl)carbamoyl)pyrrolidine-1-carbonyl)-19,19-dimethyl-16-oxo-4,7,10,13-tetraoxa-17-azaicosanoyl)piperazin-1-yl)methyl)pyrimidin-2-yl)-1,2,3,6-tetrahydropyridin-4-yl)-2-((3S,5R)-3,4,5-trimethylpiperazin-1-yl)phenyl)-6-oxo-4-(trifluoromethyl)-1,6-dihydropyridine-3-carboxamide]	able to effectively degrade WDR5
Cc1ncsc1-c1ccc(CNC(=O)[C@@H]2C[C@@H](O)CN2C(=O)[C@@H](NC(=O)COCCOCCOCCOCCOCC(=O)N2CCN(Cc3cnc(N4CC=C(c5cc(NC(=O)c6c[nH]c(=O)cc6C(F)(F)F)c(N6C[C@@H](C)N(C)[C@@H](C)C6)cc5F)CC4)nc3)CC2)C(C)(C)C)cc1 [XF078-139, N-(4-fluoro-5-(1-(5-((4-((S)-19-((2S,4R)-4-hydroxy-2-((4-(4-methylthiazol-5-yl)benzyl)carbamoyl)pyrrolidine-1-carbonyl)-20,20-dimethyl-17-oxo-3,6,9,12,15-pentaoxa-18-azahenicosanoyl)piperazin-1-yl)methyl)pyrimidin-2-yl)-1,2,3,6-tetrahydropyridin-4-yl)-2-((3S,5R)-3,4,5-trimethylpiperazin-1-yl)phenyl)-6-oxo-4-(trifluoromethyl)-1,6-dihydropyridine-3-carboxamide]	able to effectively degrade WDR5
Cc1ncsc1-c1ccc(CNC(=O)[C@@H]2C[C@@H](O)CN2C(=O)[C@@H](NC(=O)CCC(=O)N2CCN(Cc3cnc(N4CC=C(c5cc(NC(=O)c6c[nH]c(=O)cc6C(F)(F)F)c(N6C[C@@H](C)N(C)[C@@H](C)C6)cc5F)CC4)nc3)CC2)C(C)(C)C)cc1 [XF078-141, N-(4-fluoro-5-(1-(5-((4-(4-(((S)-1-((2S,4R)-4-hydroxy-2-((4-(4-methylthiazol-5-yl)benzyl)carbamoyl)pyrrolidin-1-yl)-3,3-dimethyl-1-oxobutan-2-yl)amino)-4-oxobutanoyl)piperazin-1-yl)methyl)pyrimidin-2-yl)-1,2,3,6-tetrahydropyridin-4-yl)-2-((3S,5R)-3,4,5-trimethylpiperazin-1-yl)phenyl)-6-oxo-4-(trifluoromethyl)-1,6-dihydropyridine-3-carboxamide]	able to effectively degrade WDR5
Cc1ncsc1-c1ccc(CNC(=O)[C@@H]2C[C@@H](O)CN2C(=O)[C@@H](NC(=O)CCCC(=O)N2CCN(Cc3cnc(N4CC=C(c5cc(NC(=O)c6c[nH]c(=O)cc6C(F)(F)F)c(N6C[C@@H](C)N(C)[C@@H](C)C6)cc5F)CC4)nc3)CC2)C(C)(C)C)cc1 [XF078-142, N-(4-fluoro-5-(1-(5-((4-(5-(((S)-1-((2S,4R)-4-hydroxy-2-((4-(4-methylthiazol-5-yl)benzyl)carbamoyl)pyrrolidin-1-yl)-3,3-dimethyl-1-oxobutan-2-yl)amino)-5-oxopentanoyl)piperazin-1-yl)methyl)pyrimidin-2-yl)-1,2,3,6-tetrahydropyridin-4-yl)-2-((3S,5R)-3,4,5-trimethylpiperazin-1-yl)phenyl)-6-oxo-4-(trifluoromethyl)-1,6-dihydropyridine-3-carboxamide]	able to effectively degrade WDR5

Continued, values first:

effective degradation of WDR5 in MV4;11 and/or MIAPACA2 cells	SMILES
able to effectively degrade WDR5	Cc1ncsc1-c1ccc(CNC(=O)[C@@H]2C[C@@H](O)CN2C(=O)[C@@H](NC(=O)CCCCC(=O)N2CCN(Cc3cnc(N4CC=C(c5cc(NC(=O)c6c[nH]c(=O)cc6C(F)(F)F)c(N6C[C@@H](C)N(C)[C@@H](C)C6)cc5F)CC4)nc3)CC2)C(C)(C)C)cc1 [XF078-143, N-(4-fluoro-5-(1-(5-((4-(6-(((S)-1-((2S,4R)-4-hydroxy-2-((4-(4-methylthiazol-5-yl)benzyl)carbamoyl)pyrrolidin-1-yl)-3,3-dimethyl-1-oxobutan-2-yl)amino)-6-oxohexanoyl)piperazin-1-yl)methyl)pyrimidin-2-yl)-1,2,3,6-tetrahydropyridin-4-yl)-2-((3S,5R)-3,4,5-trimethylpiperazin-1-yl)phenyl)-6-oxo-4-(trifluoromethyl)-1,6-dihydropyridine-3-carboxamide]
able to effectively degrade WDR5	Cc1ncsc1-c1ccc(CNC(=O)[C@@H]2C[C@@H](O)CN2C(=O)[C@@H](NC(=O)CCCCCC(=O)N2CCN(Cc3cnc(N4CC=C(c5cc(NC(=O)c6c[nH]c(=O)cc6C(F)(F)F)c(N6C[C@@H](C)N(C)[C@@H](C)C6)cc5F)CC4)nc3)CC2)C(C)(C)C)cc1 [XF078-144, N-(4-fluoro-5-(1-(5-((4-(7-(((S)-1-((2S,4R)-4-hydroxy-2-((4-(4-methylthiazol-5-yl)benzyl)carbamoyl)pyrrolidin-1-yl)-3,3-dimethyl-1-oxobutan-2-yl)amino)-7-oxoheptanoyl)piperazin-1-yl)methyl)pyrimidin-2-yl)-1,2,3,6-tetrahydropyridin-4-yl)-2-((3S,5R)-3,4,5-trimethylpiperazin-1-yl)phenyl)-6-oxo-4-(trifluoromethyl)-1,6-dihydropyridine-3-carboxamide]
able to effectively degrade WDR5	Cc1ncsc1-c1ccc(CNC(=O)[C@@H]2C[C@@H](O)CN2C(=O)[C@@H](NC(=O)CCCCCCC(=O)N2CCN(Cc3cnc(N4CC=C(c5cc(NC(=O)c6c[nH]c(=O)cc6C(F)(F)F)c(N6C[C@@H](C)N(C)[C@@H](C)C6)cc5F)CC4)nc3)CC2)C(C)(C)C)cc1 [XF078-145, N-(4-fluoro-5-(1-(5-((4-(8-(((S)-1-((2S,4R)-4-hydroxy-2-((4-(4-methylthiazol-5-yl)benzyl)carbamoyl)pyrrolidin-1-yl)-3,3-dimethyl-1-oxobutan-2-yl)amino)-8-oxooctanoyl)piperazin-1-yl)methyl)pyrimidin-2-yl)-1,2,3,6-tetrahydropyridin-4-yl)-2-((3S,5R)-3,4,5-trimethylpiperazin-1-yl)phenyl)-6-oxo-4-(trifluoromethyl)-1,6-dihydropyridine-3-carboxamide]
